For orientation: IC50 means the concentration that inhibits the measured activity by half.

For one test, the system named is SMMC-7721 cells. The test can be described thus: MTT cytotoxic assay, SMMC-7721. The conditions noted are these: Homo sapiens, 72 h. The test is classed as cell-based. The method, then: (§1) Human breast cancer cell line (MDA-MB-231), cervical carcinoma cell line (HeLa), the liver cancer cell line (SMMC-7721) and normal hepatocyte cell line (QSG-7701) were maintained in Dulbecco Modified Eagle Medium (DMEM) containing 4.0 mM L-Glutamine and 4500 mg/L Glucose supplemented with 10% (v/v) foetal bovine serum (FBS) and 100 U/mL penicillin/streptomycin at 37 °C in humidified atmosphere of 5% CO2 and 95% air.
(§2) Exponentially growing MDA-MB-231, Hela and SMMC-7721 cell lines were seeded into 96-well plate for 100 μL and treated with different concentrations of the synthetic compounds for 72 h, and then 10 μL of MTT (10 mg/mL) was added and incubation for 3 ∼ 4 h at 37 °C. The generated purple formazan crystals from viable can be dissolved by adding 100 μL DMSO. The plates were swirled gently for 5 min and quantified by measuring the OD of the plates at the wavelength of 540 nm. Each concentration was repeated in three wells and the same experimental condition was provided for all compounds. The results were expressed as IC50 values with standard deviations, which was defined as the concentration at which 50% survival of cells was discerned. Etoposide was co-assayed as positive control.
(§3) The in vitro cytotoxic activity of derivatives 3a–d, 4a–h, 5a–h, and 6a–h were evaluated by MTT assay against human breast cancer cell line (MDA-MB-231), cervical carcinoma cell line (HeLa), hepatocarcinoma cell line (SMMC-7721) and human normal hepatocyte cell line (QSG-7701). The anticancer drug etoposide was co-assayed as the positive control. All tested compounds were dissolved in DMSO and the stock solutions were diluted by DMEM medium before treatment of the cultured cells.

The test system of another test is MDA-MB-231 cells. Nature of the test: MTT cytotoxic assay, MDA-MB-231. The test is classed as cell-based, human. The conditions noted are these: Homo sapiens, MDA-MB-231, 72 h. Here is the method: as §1, §2, §3
(Tetrazolium assays rely on reduction of a dye to a coloured formazan, in cell work by metabolically active cells.)

The subject of a further test is HeLa cells. Nature of the test: MTT cytotoxic assay, HeLa. The test is classed as cell-based. The conditions noted are these: Homo sapiens, 72 h. Here is the method: as §1, §2, §3

For `C[C@H]1[C@H](C)CC[C@]2(C(=O)O)CC[C@]3(C)C(=CC[C@@H]4[C@@]5(C)CC[C@H](O)C(C)(C)[C@@H]5CC[C@]43C)[C@H]12` [Compound 1, Ursolic acid], the IC50 in the test on SMMC-7721 cells, in the test on MDA-MB-231 cells and with HeLa cells was greater than 50 µM in each case.
On to `C[C@@H]1CC[C@]2(C(=O)O)CC[C@]3(C)C(=CCC4[C@@]5(C)CCC(=O)C(C)(C)C5CC[C@]43C)C2[C@H]1C` (stereo partly drawn) [Compound 2, 3-oxo-ursolic acid], for which the IC50 in the test with SMMC-7721 cells, with MDA-MB-231 cells and in the test on HeLa cells was greater than 50 µM in each case.
For `CCCCC(=O)NNC(=O)[C@]12CC[C@@H](C)[C@H](C)C1C1=CCC3[C@@]4(C)Cc5cc6ccccc6nc5C(C)(C)C4CC[C@@]3(C)[C@]1(C)CC2` (stereo partly drawn) [Compound 4e, N-[ursa-12-en-(2,3)-quinoline-28-oyl]-pentanehydrazide], the half-maximal inhibitory concentration (IC50) in the test with SMMC-7721 cells, in the test on MDA-MB-231 cells and in the test with HeLa cells was greater than 50 µM throughout.
For the compound `CCCCC(=O)NNC(=O)[C@]12CC[C@@H](C)[C@H](C)C1C1=CCC3[C@@]4(C)Cc5cc6cc(OC)ccc6nc5C(C)(C)C4CC[C@@]3(C)[C@]1(C)CC2` (stereo partly drawn) [Compound 4f, N-[5′-methoxy-ursa-12-en-(2,3)-quinoline-28-oyl]-pentanehydrazide], the IC50 in the test on SMMC-7721 cells, in the test on MDA-MB-231 cells and in the test with HeLa cells was greater than 50 µM in each case.
For the compound `CCCCC(=O)NNC(=O)[C@]12CC[C@@H](C)[C@H](C)C1C1=CCC3[C@@]4(C)Cc5cc6cc(F)ccc6nc5C(C)(C)C4CC[C@@]3(C)[C@]1(C)CC2` (stereo partly drawn) [Compound 4g, N-[5′-fluoro-ursa-12-en-(2,3)-quinoline-28-oyl]-pentanehydrazide], the IC50 with SMMC-7721 cells, with MDA-MB-231 cells and in the test with HeLa cells was greater than 50 µM each time.
Consider `CCCCC(=O)NNC(=O)[C@]12CC[C@@H](C)[C@H](C)C1C1=CCC3[C@@]4(C)Cc5cc6cc(Cl)ccc6nc5C(C)(C)C4CC[C@@]3(C)[C@]1(C)CC2` (stereo partly drawn) [Compound 4h, N-[5′-chloro-ursa-12-en-(2,3)-quinoline-28-oyl]-pentanehydrazide], for which the figures for the IC50 in the test on SMMC-7721 cells, with MDA-MB-231 cells and in the test on HeLa cells were greater than 50 µM, greater than 50 µM and 46 ± 0.91 µM, respectively.
Regarding `CCCCc1nnc([C@]23CC[C@@H](C)[C@H](C)C2C2=CCC4[C@@]5(C)Cc6cc7ccccc7nc6C(C)(C)C5CC[C@@]4(C)[C@]2(C)CC3)o1` (stereo partly drawn) [Compound 5e, N-2-[ursa-12-en-(2,3)-quinoline-28-oyl]-5-butyl-1,3,4-oxadiazole], the IC50 in the test on SMMC-7721 cells, in the test on MDA-MB-231 cells and in the test with HeLa cells was greater than 50 µM in each case.
Take `CCCCc1nnc([C@]23CC[C@@H](C)[C@H](C)C2C2=CCC4[C@@]5(C)Cc6cc7cc(OC)ccc7nc6C(C)(C)C5CC[C@@]4(C)[C@]2(C)CC3)o1` (stereo partly drawn) [Compound 5f, N-[5′-methoxy-ursa-12-en-(2,3)-quinoline-28-oyl]-5-butyl-1,3,4-oxadiazole]: the IC50 in the test with SMMC-7721 cells is greater than 50 µM; in the test on MDA-MB-231 cells it was greater than 50 µM; in the test on HeLa cells it was 30.9 ± 1.14 µM.
As to `CCCCc1nnc([C@]23CC[C@@H](C)[C@H](C)C2C2=CCC4[C@@]5(C)Cc6cc7cc(F)ccc7nc6C(C)(C)C5CC[C@@]4(C)[C@]2(C)CC3)o1` (stereo partly drawn) [Compound 5g, N-[5′-fluoro-ursa-12-en-(2,3)-quinoline-28-oyl]-5-butyl-1,3,4-oxadiazole], the IC50 with SMMC-7721 cells, with MDA-MB-231 cells and in the test on HeLa cells was greater than 50 µM each time.
For `CCCCc1nnc([C@]23CC[C@@H](C)[C@H](C)C2C2=CCC4[C@@]5(C)Cc6cc7cc(Cl)ccc7nc6C(C)(C)C5CC[C@@]4(C)[C@]2(C)CC3)o1` (stereo partly drawn) [Compound 5h, N-[5′-chloro-ursa-12-en-(2,3)-quinoline-28-oyl]-5-butyl-1,3,4-oxadiazole], the IC50 in the test on SMMC-7721 cells, in the test with MDA-MB-231 cells and with HeLa cells was greater than 50 µM each time.

The values are drawn from PMC6522941, “Design, synthesis, and anticancer evaluation of novel quinoline derivatives of ursolic acid with hydrazide, oxadiazole, and thiadiazole moieties as potent MEK inhibitors” (Journal of Enzyme Inhibition and Medicinal Chemistry, 2019).
